The target of this test is Cationic amino acid transporter 3 (Homo sapiens) (UniProt Q8WY07). Kind of test: SLC7A3 cationic amino acid substrate potency, dose response, HEK293 JumpIn overexpressing cells, membrane potential dye (AID 1745863). The following applies: HEK293 JumpIn SLC7A3 OE, membrane potential dye FLIPR.

These results are taken from PubChem BioAssay AID1745863.

The term EC50 denotes the concentration that produces a half-maximal response.

Chain of Cationic amino acid transporter 3 (Homo sapiens) (Q8WY07 whole entry, looked up): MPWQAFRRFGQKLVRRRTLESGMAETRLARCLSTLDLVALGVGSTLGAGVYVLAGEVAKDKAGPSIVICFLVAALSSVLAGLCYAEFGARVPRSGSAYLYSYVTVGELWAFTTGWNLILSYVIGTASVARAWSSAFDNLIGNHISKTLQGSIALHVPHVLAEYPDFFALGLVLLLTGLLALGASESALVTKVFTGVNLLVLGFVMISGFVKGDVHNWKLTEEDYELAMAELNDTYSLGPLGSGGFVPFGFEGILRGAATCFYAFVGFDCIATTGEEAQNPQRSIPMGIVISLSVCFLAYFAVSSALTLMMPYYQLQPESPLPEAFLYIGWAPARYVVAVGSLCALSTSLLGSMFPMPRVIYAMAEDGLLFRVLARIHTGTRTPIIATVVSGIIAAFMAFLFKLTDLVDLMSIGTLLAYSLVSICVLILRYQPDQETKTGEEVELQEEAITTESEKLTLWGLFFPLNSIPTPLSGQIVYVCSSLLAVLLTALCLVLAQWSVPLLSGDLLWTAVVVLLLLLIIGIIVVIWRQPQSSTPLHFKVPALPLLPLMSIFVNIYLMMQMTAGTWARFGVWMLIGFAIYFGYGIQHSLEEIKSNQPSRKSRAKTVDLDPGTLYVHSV

`NC(N)=NCCC[C@H](N)C(=O)O`: the EC50 was 283 µM.
The result for `NCCCC[C@H](N)C(=O)O` reads 158 µM; that for `NCCC[C@H](N)C(=O)O`, 237 µM.
